From US10865211B2 (ENANTA PHARMACEUTICALS, INC, priority 2018, dated 2020) come the findings set out here.

A short description of data set [1]: Compound induced cellular toxicity in HepG2 cells (ATPlite). Conditions: human, three days, ATPlite 1 Step, concentration reducing total ATP levels by 50% relative to no drug controls. In kind it is cell-based. The protocol:
At day 3, post seeding cells are treated with ATPlite 1 Step according to the manufacturer's instructions.
(In ATP-based viability assays light output follows the ATP content of the culture.)

Data set [2] has as its system 2.2.15 cells. As to the kind of experiment: Antiviral activity in 2.2.15 cells: reduction of viral product accumulation (qPCR, HBsAg/HBeAg ELISA). In kind it is cell-based, HBV. Conditions: Hepatitis B virus, 120 h, day 5 post treatment, concentration reducing viral product accumulation in cell lysates or supernatants by 50% relative to no drug controls. The protocol:
2.2.15 cells are passaged upon attaining confluency in DMEM/F12 media in the presence of 10% FBS, Penn/Strep, and 250 ug/mL G418. Novel compounds are 5 fold serially diluted in DMSO and added to 96 well plates containing 35,000 cells/well at a 1:200 dilution so that the final concentration of DMSO is 0.5%. On day 5, post treatment cell lysates and supernatants are harvested for analysis.
Cells are lysed using Agilent Sidestep Lysis buffer, diluted 1:100 and quantified via quantitative real time PCR. Commercially available ELISA kits are used to quantitate the viral proteins HBsAg (Alpco) or HBeAg (US Biological) by following the manufacturer's recommended protocol after diluting samples to match the linear range of their respective assays. Irrespective of readout, compound concentrations that reduce viral product accumulation in the cell lysates or supernatants by 50% relative to no drug controls (EC50) are reported; EC50 ranges are as follows: A<0.1 μM; B 0.1-1 μM; C>1 μM.
Background: Real-time PCR tracks product formation cycle by cycle.

Broadly, the CC50 is the concentration that lowers cell viability or growth by half. Read a low CC50 as greater toxicity to the cells. By EC50 is commonly meant the concentration giving half of the maximal effect. Read a high EC50 as a less potent agent. Regarding `CCc1ccc2c3c(oc2c1)-c1cc(=O)c(C(=O)O)cn1[C@H](C(C)(C)C)C3` [Example 25, (S)-6-(tert-butyl)-10-ethyl-2-oxo-6,7-dihydro-2H-benzofuro[2,3-a]quinolizine-3-carboxylic acid], in data set [1], the CC50 at 3 days was above 25 µM. In data set [2], the EC50 is below 0.1 µM.
For `CC(C)(C)[C@@H]1Cc2c(oc3c(-c4ccoc4)cccc23)-c2cc(=O)c(C(=O)O)cn21` [Example 26, (S)-6-(tert-butyl)-11-(furan-3-yl)-2-oxo-6,7-dihydro-2H-benzofuro[2,3-a]quinolizine-3-carboxylic acid] the same measures were 10 to 25 µM and below 0.1 µM.
For `CC(C)(C)[C@@H]1Cc2c(oc3c(-c4cnco4)cccc23)-c2cc(=O)c(C(=O)O)cn21` [Example 27, (S)-6-(tert-butyl)-11-(oxazol-5-yl)-2-oxo-6,7-dihydro-2H-benzofuro[2,3-a]quinolizine-3-carboxylic acid] the same measures were 10 to 25 µM and below 0.1 µM.
As for `Cn1nccc1-c1cccc2c3c(oc12)-c1cc(=O)c(C(=O)O)cn1[C@H](C(C)(C)C)C3` [Example 28, (S)-6-(tert-butyl)-11-(1-methyl-1H-pyrazol-5-yl)-2-oxo-6,7-dihydro-2H-benzofuro[2,3-a]quinolizine-3-carboxylic acid], the CC50 at 3 days in data set [1] is above 25 µM. This compound also gave an EC50 in data set [2] below 0.1 µM.
In the same order, the values of `Cn1cc(-c2cccc3c4c(oc23)-c2cc(=O)c(C(=O)O)cn2[C@H](C(C)(C)C)C4)cn1` [Example 29, (S)-6-(tert-butyl)-11-(1-methyl-1H-pyrazol-4-yl)-2-oxo-6,7-dihydro-2H-benzofuro[2,3-a]quinolizine-3-carboxylic acid] are 10 to 25 µM and below 0.1 µM.
For `Cn1ccc(-c2cccc3c4c(oc23)-c2cc(=O)c(C(=O)O)cn2[C@H](C(C)(C)C)C4)n1` [Example 30, (S)-6-(tert-butyl)-11-(1-methyl-1H-pyrazol-3-yl)-2-oxo-6,7-dihydro-2H-benzofuro[2,3-a]quinolizine-3-carboxylic acid] the same measures were 10 to 25 µM and below 0.1 µM.
In the same order, the values of `CC(C)(C)[C@@H]1Cc2c(oc3c(C#N)cccc23)-c2cc(=O)c(C(=O)O)cn21` [Example 31, (S)-6-(tert-butyl)-11-cyano-2-oxo-6,7-dihydro-2H-benzofuro[2,3-a]quinolizine-3-carboxylic acid] are above 25 µM and below 0.1 µM.
On to `CC(C)(C)[C@@H]1Cc2c(oc3c(-c4cn[nH]c4)cccc23)-c2cc(=O)c(C(=O)O)cn21` [Example 32, (S)-6-(tert-butyl)-2-oxo-11-(1H-pyrazol-4-yl)-6,7-dihydro-2H-benzofuro[2,3-a]quinolizine-3-carboxylic acid], for which, in data set [1], the cytotoxic concentration (CC50) at 3 days was above 25 µM. In data set [2], this compound displayed an EC50 below 0.1 µM.
For `CC(C)(C)[C@@H]1Cc2c(oc3c(-c4ccn[nH]4)cccc23)-c2cc(=O)c(C(=O)O)cn21` [Example 33, (S)-6-(tert-butyl)-2-oxo-11-(1H-pyrazol-5-yl)-6,7-dihydro-2H-benzofuro[2,3-a]quinolizine-3-carboxylicacid] the same measures were above 25 µM and below 0.1 µM.
Regarding `CC(C)(C)[C@@H]1Cc2c(oc3c(-c4ccco4)cccc23)-c2cc(=O)c(C(=O)O)cn21` [Example 34, (S)-6-(tert-butyl)-11-(furan-2-yl)-2-oxo-6,7-dihydro-2H-benzofuro[2,3-a]quinolizine-3-carboxylic acid], in data set [1], the 50% cytotoxic concentration (CC50) at 3 days lay within 10 to 25 µM. In data set [2], the concentration for a half-maximal effect (EC50) is below 0.1 µM.
In data set [1], `CC(C)(C)[C@@H]1Cc2c(oc3c(-c4ccsc4)cccc23)-c2cc(=O)c(C(=O)O)cn21` [Example 35, (S)-6-(tert-butyl)-2-oxo-11-(thiophen-3-yl)-6,7-dihydro-2H-benzofuro[2,3-a]quinolizine-3-carboxylic acid] had a half-maximal cytotoxic concentration (CC50) at 3 days above 25 µM. For the same compound, the concentration giving a half-maximal response (EC50) in data set [2] is below 0.1 µM.
In data set [1], `CC(C)(C)[C@@H]1Cc2c(oc3c(N4CCC(F)(F)C4)cccc23)-c2cc(=O)c(C(=O)O)cn21` [Example 36, (S)-6-(tert-butyl)-11-(3,3-difluoropyrrolidin-1-yl)-2-oxo-6,7-dihydro-2H-benzofuro[2,3-a]quinolizine-3-carboxylic acid] had a CC50 at 3 days above 25 µM. Besides, the 50% effective concentration (EC50) in data set [2] is below 0.1 µM.
In the same order, the values of `CC(C)(C)[C@@H]1Cc2c(oc3c(-c4cccs4)cccc23)-c2cc(=O)c(C(=O)O)cn21` [Example 37, (S)-6-(tert-butyl)-2-oxo-11-(thiophen-2-yl)-6,7-dihydro-2H-benzofuro[2,3-a]quinolizine-3-carboxylic acid] are above 25 µM and below 0.1 µM.
For `CC(C)(C)[C@@H]1Cc2c(oc3c(-c4cnsc4)cccc23)-c2cc(=O)c(C(=O)O)cn21` [Example 38, (S)-6-(tert-butyl)-11-(isothiazol-4-yl)-2-oxo-6,7-dihydro-2H-benzofuro[2,3-a]quinolizine-3-carboxylic acid] the same measures were 10 to 25 µM and below 0.1 µM.
In turn, `CC(C)(C)[C@@H]1Cc2c(oc3c(-c4cscn4)cccc23)-c2cc(=O)c(C(=O)O)cn21` [Example 39, (S)-6-(tert-butyl)-2-oxo-11-(thiazol-4-yl)-6,7-dihydro-2H-benzofuro[2,3-a]quinolizine-3-carboxylic acid] showed a CC50 at 3 days in data set [1] of 10 to 25 µM. Further, the EC50 in data set [2] is below 0.1 µM.
For `CC(C)(C)[C@@H]1Cc2c(oc3c(-c4nccs4)cccc23)-c2cc(=O)c(C(=O)O)cn21` [Example 41, (S)-6-(tert-butyl)-2-oxo-11-(thiazol-2-yl)-6,7-dihydro-2H-benzofuro[2,3-a]quinolizine-3-carboxylic acid] the same measures were 10 to 25 µM and below 0.1 µM.
Consider `CC(C)(C)[C@@H]1Cc2c(oc3c(-n4cccn4)cccc23)-c2cc(=O)c(C(=O)O)cn21` [Example 42, (S)-6-(tert-butyl)-2-oxo-11-(1H-pyrazol-1-yl)-6,7-dihydro-2H-benzofuro[2,3-a]quinolizine-3-carboxylic acid], for which, in data set [1], the CC50 at 3 days was above 25 µM. The EC50 in data set [2] is below 0.1 µM.
In the same order, the values of `CC(C)(C)[C@@H]1Cc2c(oc3c(C4CC4)cccc23)-c2cc(=O)c(C(=O)O)cn21` [Example 43, (S)-6-(tert-butyl)-11-cyclopropyl-2-oxo-6,7-dihydro-2H-benzofuro[2,3-a]quinolizine-3-carboxylic acid] are 10 to 25 µM and below 0.1 µM.
As to `COc1cccc2c3c(oc12)-c1cc(=O)c(C(=O)O)cn1[C@H](C(C)(C)C)C3` [Example 45, (S)-6-(tert-butyl)-11-methoxy-2-oxo-6,7-dihydro-2H-benzofuro[2,3-a]quinolizine-3-carboxylic acid], the CC50 at 3 days in data set [1] was above 25 µM. Further, the EC50 in data set [2] was below 0.1 µM.
In turn, `CC(C)(C)[C@@H]1Cc2c(oc3c(OC4COC4)cccc23)-c2cc(=O)c(C(=O)O)cn21` [Example 46, (S)-6-(tert-butyl)-11-(oxetan-3-yloxy)-2-oxo-6,7-dihydro-2H-benzofuro[2,3-a]quinolizine-3-carboxylic acid] came in with a CC50 at 3 days in data set [1] above 25 µM. This compound also gave an EC50 in data set [2] below 0.1 µM.
In the same order, the values of `CC(C)(C)[C@@H]1Cc2c(oc3c(OC4CC4)cccc23)-c2cc(=O)c(C(=O)O)cn21` [Example 47, (S)-6-(tert-butyl)-11-cyclopropoxy-2-oxo-6,7-dihydro-2H-benzofuro[2,3-a]quinolizine-3-carboxylic acid] are 10 to 25 µM and below 0.1 µM.
In the same order, the values of `CC(C)(C)[C@@H]1Cc2c(oc3c(-c4ccoc4)cccc23)-c2c(F)c(=O)c(C(=O)O)cn21` [Example 48, (S)-6-(tert-butyl)-1-fluoro-11-(furan-3-yl)-2-oxo-6,7-dihydro-2H-benzofuro[2,3-a]quinolizine-3-carboxylic acid] are above 25 µM and below 0.1 µM.
For `CC(C)(C)[C@@H]1Cc2c(oc3c(-c4ccco4)cccc23)-c2c(F)c(=O)c(C(=O)O)cn21` [Example 49, (S)-6-(tert-butyl)-1-fluoro-11-(furan-2-yl)-2-oxo-6,7-dihydro-2H-benzofuro[2,3-a]quinolizine-3-carboxylic acid] the same measures were above 25 µM and below 0.1 µM.
Compound `CC(C)(C)[C@@H]1Cc2c(oc3c(-c4cn[nH]c4)cccc23)-c2c(F)c(=O)c(C(=O)O)cn21` [Example 50, (S)-6-(tert-butyl)-1-fluoro-2-oxo-11-(1H-pyrazol-4-yl)-6,7-dihydro-2H-benzofuro[2,3-a]quinolizine-3-carboxylic acid] gave a 50% cytotoxic concentration (CC50) at 3 days in data set [1] above 25 µM. The compound further came in with an EC50 in data set [2] below 0.1 µM.
In data set [1], `CC(C)(C)[C@@H]1Cc2c(oc3c(-c4ccn[nH]4)cccc23)-c2c(F)c(=O)c(C(=O)O)cn21` [Example 51, (S)-6-(tert-butyl)-1-fluoro-2-oxo-11-(1H-pyrazol-5-yl)-6,7-dihydro-2H-benzofuro[2,3-a]quinolizine-3-carboxylic acid] returned a CC50 at 3 days above 25 µM. In data set [2], this compound gave an EC50 below 0.1 µM.
In data set [1], `CC(C)(C)[C@@H]1Cc2c(oc3c(-c4cnsc4)cccc23)-c2c(F)c(=O)c(C(=O)O)cn21` [Example 52, (S)-6-(tert-butyl)-1-fluoro-11-(isothiazol-4-yl)-2-oxo-6,7-dihydro-2H-benzofuro[2,3-a]quinolizine-3-carboxylic acid] had a cytotoxic concentration (CC50) at 3 days above 25 µM. The same compound gave a concentration for a half-maximal effect (EC50) in data set [2] below 0.1 µM.
